In PubChem BioAssay (NCI):
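GI50 marks 50% less growth. TGI denotes the concentration required for complete inhibition of growth.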

Key:
Test in all cases: NCI tumour cell line growth inhibition, 384-well format; in the data active means GI50 below about 0.43 µM; inactive means the rest
[1] = system: HT29 colon
[2] = system: NCI-H226 lung
[3] = system: HOP-92 NSCLC
[4] = system: CCRF-CEM leukemia
[5] = system: LOX IMVI melanoma
[6] = system: BT-549 breast
[7] = system: RXF 393 renal
[8] = system: SF-295 CNS
[9] = system: HL-60(TB) leukemia
[10] = system: SK-MEL-28 melanoma
[11] = system: HCT-116 colon
[12] = system: SF-268 CNS
[13] = system: K-562 leukemia
[14] = system: IGROV1 ovarian
[15] = system: NCI-H23 lung
[16] = system: NCI/ADR-RES ovarian
[17] = system: A498 renal
[18] = system: MDA-MB-468 breast
[19] = system: SW-620 colon
[20] = system: HOP-62 NSCLC
[21] = system: DU-145 prostate
[22] = system: SN12C renal
[23] = system: MDA-MB-435 melanoma
[24] = system: NCI-H460 NSCLC
[25] = system: SF-539 CNS
[26] = system: NCI-H522 lung
[27] = system: EKVX NSCLC
[28] = system: U251 glioblastoma
[29] = system: CAKI-1 renal
[30] = system: M14 melanoma
[31] = system: RPMI-8226 leukemia
[32] = system: T-47D breast
[33] = system: ACHN renal
[34] = system: A549 NSCLC
[35] = system: HS 578T breast
[36] = system: UO-31 renal
[37] = system: OVCAR-4 ovarian
[38] = system: PC-3 prostate
[39] = system: MOLT-4 leukemia
[40] = system: SNB-19 CNS
[41] = system: MDA-MB-231 breast
[42] = system: HCT-15 colon
[43] = system: UACC-62 melanoma
[44] = system: OVCAR-8 ovarian
[45] = system: SNB-75 CNS
[46] = system: KM12 colon
[47] = system: OVCAR-3 ovarian
[48] = system: SK-MEL-5 melanoma
[49] = system: COLO 205 colon
[50] = system: TK-10 renal
[51] = system: HCC-2998 colon
[52] = system: SK-OV-3 ovarian
[53] = system: UACC-257 melanoma
[54] = system: 786-0 renal
[55] = system: MALME-3M melanoma
[56] = system: NCI-H322M lung
[57] = system: MCF7 breast

C[C@H](Nc1ccc2c(c1)OCCn1cc(N3C(=O)OC[C@H]3C(F)F)nc1-2)C(N)=O
54.2 µM: TGI [46]
46.3 µM: TGI [29]
3.3 µM: TGI [9]
10.9 µM: TGI [18]
0.141 µM: TGI [14]
48.4 µM: TGI [35]
inactive: GI50 [2] 38.5 µM | GI50 [3] 2.2 µM | GI50 [4] 5.71 µM | GI50 [5] 12.5 µM | GI50 [6] 14.5 µM | GI50 [7] 15.9 µM | GI50 [8] 14.6 µM | GI50 [10] 7.96 µM | GI50 [11] 25.9 µM | GI50 [12] 24 µM | GI50 [13] > 100 µM | GI50 [15] 21.8 µM | GI50 [16] > 100 µM | GI50 [17] 15.2 µM | GI50 [18] 1.57 µM | GI50 [19] 95.4 µM | GI50 [20] 34.6 µM | GI50 [21] 18 µM | GI50 [22] 5.74 µM | GI50 [23] 58.1 µM | GI50 [24] 0.802 µM | GI50 [25] 17.6 µM | GI50 [26] 19 µM | GI50 [27] 2.99 µM | GI50 [28] 75.8 µM | GI50 [29] 3.11 µM | GI50 [30] > 100 µM | GI50 [31] 16.1 µM | GI50 [33] 15.2 µM | GI50 [34] 12.7 µM | GI50 [35] 6.24 µM | GI50 [36] 6.24 µM | GI50 [37] 43.8 µM | GI50 [38] 3.82 µM | GI50 [39] 1.07 µM | GI50 [40] 85.3 µM | GI50 [41] 25.9 µM | GI50 [42] 0.73 µM | GI50 [43] 5.64 µM | GI50 [44] 27 µM | GI50 [45] 3.2 µM | GI50 [46] 19.5 µM | GI50 [47] 3.27 µM | GI50 [48] 43.4 µM | GI50 [49] 0.987 µM | GI50 [50] 4.03 µM | GI50 [51] 5.68 µM | GI50 [53] > 100 µM | GI50 [54] 40.5 µM | GI50 [55] 5.85 µM | GI50 [56] 2.85 µM
21.7 µM: TGI [47]
active: GI50 [1] 0.289 µM | GI50 [9] 0.156 µM | GI50 [14] 0.0195 µM | GI50 [32] 0.0131 µM | GI50 [52] 0.049 µM | GI50 [57] 0.039 µM
57.3 µM: TGI [56]
> 100 µM: TGI [1] | TGI [2] | TGI [3] | TGI [4] | TGI [6] | TGI [8] | TGI [10] | TGI [11] | TGI [12] | TGI [13] | TGI [15] | TGI [16] | TGI [17] | TGI [19] | TGI [20] | TGI [21] | TGI [22] | TGI [23] | TGI [24] | TGI [25] | TGI [26] | TGI [28] | TGI [30] | TGI [33] | TGI [34] | TGI [36] | TGI [37] | TGI [38] | TGI [40] | TGI [41] | TGI [42] | TGI [43] | TGI [44] | TGI [45] | TGI [48] | TGI [49] | TGI [50] | TGI [51] | TGI [52] | TGI [53] | TGI [54] | TGI [55] | TGI [57]
0.0728 µM: TGI [32]
46.7 µM: TGI [27]
43.9 µM: TGI [5]
10.6 µM: TGI [39]
71.4 µM: TGI [7]
31.7 µM: TGI [31]
